The record followed here is ChEMBL document CHEMBL1201862, “PubChem BioAssay data set” (2004).

In experiment [1] the target is Cytochrome P450 2D6 (Homo sapiens, UniProt P10635). In words: qHTS Assay for Inhibitors and Substrates of Cytochrome P450 2D6. [Related pubchem assays: 410 ]. In kind it is ADME. As to conditions: read-out: Potency.
The target in experiment [2] is Cytochrome P450 2C9 (Homo sapiens, UniProt P11712). As to conditions: Potency.
The target of experiment [3] is T1, Replicative DNA helicase DnaB (Mycobacterium tuberculosis, UniProt P9WMR3).
T1 sequence (P9WMR3 whole entry): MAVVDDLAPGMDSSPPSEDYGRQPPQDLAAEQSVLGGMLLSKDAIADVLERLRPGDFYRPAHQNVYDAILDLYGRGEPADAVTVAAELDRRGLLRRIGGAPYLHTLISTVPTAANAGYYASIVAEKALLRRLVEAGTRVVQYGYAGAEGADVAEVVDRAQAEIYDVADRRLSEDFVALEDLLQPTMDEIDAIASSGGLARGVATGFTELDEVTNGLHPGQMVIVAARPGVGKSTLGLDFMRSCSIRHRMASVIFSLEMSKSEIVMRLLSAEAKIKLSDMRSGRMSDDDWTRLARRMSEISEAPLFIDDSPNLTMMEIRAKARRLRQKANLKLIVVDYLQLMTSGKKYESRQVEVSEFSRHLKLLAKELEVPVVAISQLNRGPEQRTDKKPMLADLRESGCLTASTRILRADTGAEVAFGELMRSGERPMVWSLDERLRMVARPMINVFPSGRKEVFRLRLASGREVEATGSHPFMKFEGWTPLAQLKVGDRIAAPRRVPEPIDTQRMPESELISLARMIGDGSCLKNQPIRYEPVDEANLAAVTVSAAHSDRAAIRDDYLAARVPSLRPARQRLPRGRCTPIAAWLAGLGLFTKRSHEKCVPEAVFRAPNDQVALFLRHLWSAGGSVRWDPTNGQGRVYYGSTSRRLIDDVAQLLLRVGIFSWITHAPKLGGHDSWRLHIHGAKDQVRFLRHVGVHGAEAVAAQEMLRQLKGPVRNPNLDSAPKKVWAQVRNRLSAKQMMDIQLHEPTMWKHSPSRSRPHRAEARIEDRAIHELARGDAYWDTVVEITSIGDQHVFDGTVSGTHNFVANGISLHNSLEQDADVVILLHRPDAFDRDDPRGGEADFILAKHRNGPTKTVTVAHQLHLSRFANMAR
In words: DnaB intein splicing inhibitors, dose response, biochemical, cell-free fluorescence (AID 449749). In kind it is functional.

Experiment [4] addresses Transitional endoplasmic reticulum ATPase (Homo sapiens, UniProt P55072, C522A). Briefly: C522A mutant p97 ATPase inhibitors, dose response, counter-screen for p97 inhibitor project, biochemical, luminescence (AID 1544). (The purpose of a counterscreen is to sort out artefacts and off-target activity.)
Experiment [5] has as its system BJ. Briefly: cytotoxicity toward BJ-TERT fibroblasts, dose response, cell-based, RAS-independent, luminescence (AID 1933). The format is functional. As to conditions: Homo sapiens.
Experiment [6] concerns BJ. In words: cells. In kind it is functional, cell-based. As to conditions: Homo sapiens.
Experiment [7] deals with Transitional endoplasmic reticulum ATPase (Homo sapiens, UniProt P55072). Briefly: p97 ATPase inhibitors, dose response, biochemical (AID 1534).
Experiment [8] relates to HEK293. Briefly: NOD2 signaling inhibitors in MDP-stimulated cells, cell-based, uHTS, luminescence (AID 2001). As to conditions: Homo sapiens. In kind it is functional.
In experiment [9] the target is Nucleotide-binding oligomerization domain-containing protein 1 (Homo sapiens, UniProt Q9Y239). Briefly: NOD1 signaling inhibitors, SAR follow-up, revised (AID 2333). The format is functional.
The target of experiment [10] is T2, Heat shock factor protein 1 (Mus musculus, UniProt P38532).
T2 sequence (P38532 whole entry): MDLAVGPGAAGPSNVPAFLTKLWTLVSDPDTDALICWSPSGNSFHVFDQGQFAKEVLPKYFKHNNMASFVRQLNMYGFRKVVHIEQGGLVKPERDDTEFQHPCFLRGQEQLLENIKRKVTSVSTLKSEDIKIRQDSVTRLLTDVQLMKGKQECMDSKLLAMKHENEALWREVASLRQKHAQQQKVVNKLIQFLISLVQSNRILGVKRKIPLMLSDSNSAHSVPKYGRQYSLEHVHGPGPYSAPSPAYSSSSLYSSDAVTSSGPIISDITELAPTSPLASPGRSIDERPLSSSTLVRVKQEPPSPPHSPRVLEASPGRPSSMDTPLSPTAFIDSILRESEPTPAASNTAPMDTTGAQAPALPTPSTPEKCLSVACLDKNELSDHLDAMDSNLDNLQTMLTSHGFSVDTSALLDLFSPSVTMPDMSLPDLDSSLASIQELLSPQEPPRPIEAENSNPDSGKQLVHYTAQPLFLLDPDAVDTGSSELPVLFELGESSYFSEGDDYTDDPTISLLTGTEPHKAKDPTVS
In words: HSF1 potentiators in luciferase reporter cells, confirmation, cell-based, NIH3T3, luminescence, dose retest (AID 435004).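 Note: stress induced by proteasome inhibitor MG132 added 30 min after compound; luciferase reporter driven by HSF1 response element in NIH3T3 cells; actives raise luminescence as potentiators of the MG132 stress response.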 In kind it is functional.

For experiment [11], the system named is HEK293. In words: cells. The format is functional, cell-based. As to conditions: Homo sapiens.
In experiment [12] the test system is HEK293. In words: cells. As to conditions: Homo sapiens.
Experiment [13] in a line: cytotoxicity toward DRD oncogenic fibroblasts, dose response, cell-based, non-viral oncogenic, luminescence (AID 1934). As to conditions: Homo sapiens. In kind it is functional.
In experiment [14] the target is Tumor necrosis factor (Homo sapiens, UniProt P01375). Briefly: TNFa-triggered NF-kB activation inhibitors, SAR follow-up, cell-based, revised (AID 2337). The format is functional.
The subject of experiment [15] is BJ. In words: cytotoxicity toward Ras-transformed BJeLR fibroblasts, dose response, cell-based, alamar blue fluorescence, cherrypicked samples (AID 2631).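 Note: confirmatory dose-response assay in RAS-dependent BJ fibroblasts engineered with TERT, LT and ST, with cytotoxicity read by fluorescence.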 The format is functional. As to conditions: Homo sapiens. Background: Resazurin is reduced to fluorescent resorufin, in cell work by metabolically active cells.
The subject of experiment [16] is Vero. Briefly: cells. The format is functional. As to conditions: Chlorocebus sabaeus.
Experiment [17] in a line: Luminescent dose response cell-based high throughput screening assay for inhibitors of the Janus kinase 2 mutant JAK2V617F. [Related pubchem assays: 1446 (Primary screen.), 1521 (Confirmation assay.), 1486 (Counter screen.)]. In kind it is functional.
Experiment [18] deals with HEK293. In words: cells. The format is functional, cell-based. As to conditions: Homo sapiens. This is another data set of the same source.
Experiment [19] has as its system BJ. In words: cytotoxicity toward BJ-TERT-LT-ST fibroblasts, dose response, cell-based, RAS-independent, luminescence (AID 1935).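 Note: BJ fibroblasts immortalized with TERT plus LT and ST oncogenes.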 In kind it is functional. As to conditions: Homo sapiens.
Experiment [20] addresses T3, Protein RecA (Mycobacterium tuberculosis, UniProt P9WHJ3).
T3 sequence (P9WHJ3 whole entry): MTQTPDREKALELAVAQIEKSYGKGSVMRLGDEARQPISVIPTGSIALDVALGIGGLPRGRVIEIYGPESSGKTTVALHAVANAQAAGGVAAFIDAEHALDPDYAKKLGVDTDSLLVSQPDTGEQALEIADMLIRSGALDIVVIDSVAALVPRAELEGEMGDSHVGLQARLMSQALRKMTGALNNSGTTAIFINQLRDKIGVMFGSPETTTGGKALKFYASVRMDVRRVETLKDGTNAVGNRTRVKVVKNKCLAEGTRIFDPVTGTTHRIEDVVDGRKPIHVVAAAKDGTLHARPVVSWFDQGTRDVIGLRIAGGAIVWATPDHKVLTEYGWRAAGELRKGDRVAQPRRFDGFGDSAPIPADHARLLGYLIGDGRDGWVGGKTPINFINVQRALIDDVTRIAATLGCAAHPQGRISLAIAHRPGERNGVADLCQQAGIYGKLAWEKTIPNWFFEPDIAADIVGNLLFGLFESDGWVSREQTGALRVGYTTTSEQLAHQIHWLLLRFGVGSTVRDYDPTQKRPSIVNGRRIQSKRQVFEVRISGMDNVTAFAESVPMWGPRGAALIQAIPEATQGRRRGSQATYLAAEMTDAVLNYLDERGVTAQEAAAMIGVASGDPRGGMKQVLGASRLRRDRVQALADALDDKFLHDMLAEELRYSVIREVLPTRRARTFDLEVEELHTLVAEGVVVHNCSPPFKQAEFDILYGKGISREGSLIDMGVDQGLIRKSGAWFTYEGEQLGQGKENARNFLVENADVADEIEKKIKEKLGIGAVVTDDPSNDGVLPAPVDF
In words: Fluorescence Cell-Free Homogeneous Dose Retest to Identify Inhibitors of RecA-Intein Splicing Activity. [Related pubchem assays (depositor defined):AID2097, AID2223, AID489010, AID492950]. The format is functional.

The test system of experiment [21] is HEK293. In words: NOD1 signaling inhibitors, primary screen, cell-based, luminescence, uHTS (AID 1578). The format is functional. As to conditions: Homo sapiens.
The target in experiment [22] is Dual specificity protein phosphatase 3 (Homo sapiens, UniProt P51452). Briefly: VHR1 inhibitor Ki determination, SAR follow-up, biochemical, colorimetric (AID 2004).

Active and inactive are the calls of the source.

Nucleotide-binding oligomerization domain-containing protein 1, sequence (Q9Y239 whole entry, the tested form may be a part): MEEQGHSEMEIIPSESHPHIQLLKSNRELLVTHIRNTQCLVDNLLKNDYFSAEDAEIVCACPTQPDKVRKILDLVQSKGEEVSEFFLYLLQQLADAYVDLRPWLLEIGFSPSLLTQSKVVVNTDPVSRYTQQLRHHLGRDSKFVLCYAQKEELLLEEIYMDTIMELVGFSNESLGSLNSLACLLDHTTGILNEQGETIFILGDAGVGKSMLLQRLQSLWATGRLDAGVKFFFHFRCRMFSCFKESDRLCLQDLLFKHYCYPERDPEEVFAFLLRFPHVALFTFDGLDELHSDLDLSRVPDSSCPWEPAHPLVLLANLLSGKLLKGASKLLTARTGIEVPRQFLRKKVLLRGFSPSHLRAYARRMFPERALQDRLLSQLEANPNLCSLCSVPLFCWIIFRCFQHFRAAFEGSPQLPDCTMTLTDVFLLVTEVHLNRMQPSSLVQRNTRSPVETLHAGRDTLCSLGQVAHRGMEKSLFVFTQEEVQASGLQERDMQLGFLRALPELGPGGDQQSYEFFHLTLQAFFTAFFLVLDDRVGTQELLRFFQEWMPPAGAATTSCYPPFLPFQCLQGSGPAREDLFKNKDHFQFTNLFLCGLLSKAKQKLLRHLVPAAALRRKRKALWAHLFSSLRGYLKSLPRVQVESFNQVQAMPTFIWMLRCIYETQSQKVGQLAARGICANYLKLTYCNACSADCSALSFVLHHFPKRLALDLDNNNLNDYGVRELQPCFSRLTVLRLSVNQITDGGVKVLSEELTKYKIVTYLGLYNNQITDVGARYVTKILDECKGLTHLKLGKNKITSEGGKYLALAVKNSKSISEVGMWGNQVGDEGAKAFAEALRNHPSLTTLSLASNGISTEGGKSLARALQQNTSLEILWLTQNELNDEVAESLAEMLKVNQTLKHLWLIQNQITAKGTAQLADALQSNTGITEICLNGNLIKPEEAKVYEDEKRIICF
Tumor necrosis factor, sequence (P01375 whole entry): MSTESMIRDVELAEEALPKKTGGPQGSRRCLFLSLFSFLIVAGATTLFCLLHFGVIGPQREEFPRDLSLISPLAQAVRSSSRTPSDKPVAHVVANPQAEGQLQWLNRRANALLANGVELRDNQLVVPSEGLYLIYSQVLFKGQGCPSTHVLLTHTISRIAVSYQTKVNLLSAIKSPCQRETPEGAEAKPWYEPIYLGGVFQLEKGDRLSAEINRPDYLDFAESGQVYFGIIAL
Cytochrome P450 2D6, sequence (P10635 whole entry): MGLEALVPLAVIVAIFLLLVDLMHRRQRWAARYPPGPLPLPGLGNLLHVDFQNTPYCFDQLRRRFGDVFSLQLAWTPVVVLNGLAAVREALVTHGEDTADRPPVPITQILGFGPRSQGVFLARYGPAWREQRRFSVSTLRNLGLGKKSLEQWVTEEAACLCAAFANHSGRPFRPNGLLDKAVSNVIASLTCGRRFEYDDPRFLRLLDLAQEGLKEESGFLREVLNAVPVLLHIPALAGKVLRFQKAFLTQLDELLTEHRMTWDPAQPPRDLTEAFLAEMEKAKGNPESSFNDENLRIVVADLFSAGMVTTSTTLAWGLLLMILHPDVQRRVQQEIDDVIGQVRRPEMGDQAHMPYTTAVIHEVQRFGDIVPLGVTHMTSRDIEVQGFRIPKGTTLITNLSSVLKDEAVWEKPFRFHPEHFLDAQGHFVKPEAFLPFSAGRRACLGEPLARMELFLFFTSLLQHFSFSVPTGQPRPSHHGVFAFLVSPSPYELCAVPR
Transitional endoplasmic reticulum ATPase (Homo sapiens, UniProt P55072, C522A), sequence (P55072 2-806 C522A limits assumed): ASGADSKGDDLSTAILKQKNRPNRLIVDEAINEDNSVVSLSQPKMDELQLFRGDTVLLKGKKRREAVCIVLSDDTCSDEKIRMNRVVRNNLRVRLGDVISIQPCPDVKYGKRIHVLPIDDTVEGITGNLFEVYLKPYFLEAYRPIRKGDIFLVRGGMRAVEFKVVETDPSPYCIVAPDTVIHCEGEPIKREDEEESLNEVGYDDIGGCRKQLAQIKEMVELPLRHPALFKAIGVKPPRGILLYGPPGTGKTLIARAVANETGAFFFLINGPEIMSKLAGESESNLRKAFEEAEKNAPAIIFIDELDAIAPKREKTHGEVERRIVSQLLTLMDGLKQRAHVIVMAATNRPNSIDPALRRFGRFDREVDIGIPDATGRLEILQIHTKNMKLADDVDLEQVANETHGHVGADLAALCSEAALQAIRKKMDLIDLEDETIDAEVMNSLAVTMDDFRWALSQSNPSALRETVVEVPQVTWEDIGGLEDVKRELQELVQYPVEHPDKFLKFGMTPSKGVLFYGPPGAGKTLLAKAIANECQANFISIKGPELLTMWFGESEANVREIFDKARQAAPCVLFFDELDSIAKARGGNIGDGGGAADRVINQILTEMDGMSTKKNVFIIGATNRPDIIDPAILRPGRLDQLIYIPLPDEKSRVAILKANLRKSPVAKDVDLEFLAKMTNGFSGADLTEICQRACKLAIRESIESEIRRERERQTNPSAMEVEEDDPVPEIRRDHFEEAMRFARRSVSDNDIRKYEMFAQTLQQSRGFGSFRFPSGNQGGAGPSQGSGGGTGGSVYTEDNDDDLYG
Cytochrome P450 2C9, sequence (P11712 whole entry): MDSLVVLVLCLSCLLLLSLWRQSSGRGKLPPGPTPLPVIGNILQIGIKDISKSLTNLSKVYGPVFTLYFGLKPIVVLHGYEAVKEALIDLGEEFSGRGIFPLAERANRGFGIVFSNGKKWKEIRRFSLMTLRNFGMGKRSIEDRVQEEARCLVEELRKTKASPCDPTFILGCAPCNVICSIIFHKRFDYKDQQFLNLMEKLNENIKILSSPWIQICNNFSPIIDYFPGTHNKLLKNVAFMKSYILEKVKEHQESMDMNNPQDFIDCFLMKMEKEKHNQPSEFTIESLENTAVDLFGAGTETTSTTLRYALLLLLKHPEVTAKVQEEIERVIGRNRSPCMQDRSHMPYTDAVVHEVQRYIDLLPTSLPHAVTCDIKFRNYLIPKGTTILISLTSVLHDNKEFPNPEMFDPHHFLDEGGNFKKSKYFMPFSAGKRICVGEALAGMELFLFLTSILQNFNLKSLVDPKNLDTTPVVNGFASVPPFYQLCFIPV
Transitional endoplasmic reticulum ATPase (Homo sapiens, UniProt P55072), sequence (P55072 whole entry): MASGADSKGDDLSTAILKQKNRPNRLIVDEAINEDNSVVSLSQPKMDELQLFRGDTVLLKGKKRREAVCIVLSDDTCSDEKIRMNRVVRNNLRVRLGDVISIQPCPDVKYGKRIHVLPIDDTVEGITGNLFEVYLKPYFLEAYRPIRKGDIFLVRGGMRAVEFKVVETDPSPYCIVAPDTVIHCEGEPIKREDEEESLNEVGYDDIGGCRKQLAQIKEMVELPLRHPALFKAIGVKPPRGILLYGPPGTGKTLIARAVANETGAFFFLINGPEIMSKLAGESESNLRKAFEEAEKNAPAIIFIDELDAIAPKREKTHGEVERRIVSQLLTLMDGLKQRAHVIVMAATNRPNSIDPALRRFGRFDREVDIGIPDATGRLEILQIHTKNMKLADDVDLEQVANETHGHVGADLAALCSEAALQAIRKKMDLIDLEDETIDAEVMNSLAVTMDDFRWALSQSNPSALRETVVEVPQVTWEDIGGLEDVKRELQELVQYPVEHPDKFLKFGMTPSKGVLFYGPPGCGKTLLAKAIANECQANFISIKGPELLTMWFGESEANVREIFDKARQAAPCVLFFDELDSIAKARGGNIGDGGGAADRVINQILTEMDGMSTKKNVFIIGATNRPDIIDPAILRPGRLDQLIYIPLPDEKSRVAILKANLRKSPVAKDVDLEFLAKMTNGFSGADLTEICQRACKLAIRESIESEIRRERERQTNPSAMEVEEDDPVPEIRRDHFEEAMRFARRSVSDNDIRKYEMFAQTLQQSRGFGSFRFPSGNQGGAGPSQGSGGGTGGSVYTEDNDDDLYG
Dual specificity protein phosphatase 3, sequence (P51452 whole entry): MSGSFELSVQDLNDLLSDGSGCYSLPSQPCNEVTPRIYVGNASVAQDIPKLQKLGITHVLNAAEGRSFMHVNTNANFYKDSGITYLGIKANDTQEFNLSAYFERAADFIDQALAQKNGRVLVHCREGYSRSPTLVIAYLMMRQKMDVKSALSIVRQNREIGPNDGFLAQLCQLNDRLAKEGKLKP

In the case of `O=c1cc(-c2ccccc2O)oc2cc(O)cc(O)c12`, the AC50 in experiment [1] was 25.1 µM (inconclusive).

As to `CCC[C@@H]1O[C@@H]2C[C@@H]3[C@@H]4CCC5=CC(=O)C=C[C@@]5(C)[C@H]4[C@H](O)C[C@@]3(C)[C@@]2(C(=O)CO)O1`, the AC50 in experiment [2] is 25.1 µM (inconclusive).

Broadly, the IC50 is the concentration at which inhibition is half-maximal. What is called EC50 is the concentration at which the effect is half-maximal. As usually defined, the CC50 is the concentration that lowers cell viability or growth by half. With `Nc1nc(CCl)nc(Nc2ccc3ccccc3c2)n1`, the AC50 in [3] is 15.4 µM (active). In addition, the 50% inhibitory concentration (IC50) was > 50 µM (not active) in [4]; > 50 µM (not active) in experiment [7]; 7.7 µM (active) in [8]; 3.43 µM (active) in experiment [9]; > 20 µM (inactive) in experiment [11]; > 20 µM (inactive) in [12]. The IC50 in experiment [14] is 11.1 µM (active); in experiment [17], 0.476 µM (active); in experiment [18] it was 5.4 µM (active). Moreover, the EC50 in [5] is < 0.12 µM (active); in experiment [6], 0.717 µM (inconclusive); in experiment [10] it was > 260 µM (inactive); in experiment [13] it was 0.289 µM (active); in experiment [15], 4.62 µM (active); in experiment [19], 8.32 µM (inconclusive). In addition, the EC50 is 19.4 µM (active) in experiment [20] and 11.1 µM (active) in experiment [21]. In [16], the 50% cytotoxic concentration (CC50) was 1.24 µM (active).

A word on the Ki: it is a measure of affinity in units of concentration, obtained from inhibition or displacement. For `CCC(CO)N/C=C1\C(=O)N(c2c(Cl)cccc2Cl)c2ccccc21` (configuration not stated), the Ki in experiment [22] was 24.2 µM (inactive).
